# Data from patent US4719297A, “Acylphosphine compounds and their use as photoinitiators” (priority 1981, dated 1988).
# Key:
# [1] = Hardening activity of UP resin B under UV light, temperature/time curve (Table 2); conditions: 0.2% compound
# Method: (§1) To measure the hardening activity, the temperature curve for the unsaturated polyester resin (UP resin) was recorded during exposure to UV light. […] To avoid heat losses during the exposure to UV light, the lid was embedded in rigid expanded polyurethane foam. The UV light source used comprised 5 fluorescent tubes (TLAK 40 W/05 from Philips) side by side, at a distance of 8.5 cm from the UP resin surface.
# (§2) The hardening time HT25° C.-T.sbsb.max and the maximum hardening temperature Tmax achieved were obtained, as characteristic parameters for the hardening activity, from the recorded temperature/time curves. The hardening time is the interval in which the sample temperature increases from 25° C. to Tmax.
# (§3) The Examples and Comparative Examples were carried out using the following unsaturated polyester resins:
# Resin B was a 67% strength solution, in styrene, of an unsaturated polyester of maleic acid, tetrahydrophthalic acid and diethylene glycol in the molar ratio of 1:0.5:1.5, the solution being stabilized with 0.01% of hydroquinone.
# (§4) The hardening activity of the novel compounds 1 to 16 (cf. Table 1) was compared with the properties of the following compounds: […]
# [2] = Shelf life of UP resin B containing a photoinitiator, stored at 60° C. (Table 3); assay type: physicochemical; conditions: 0.2% initiator, dark
# Method: (§5) To test the shelf life, 6.6 ml of each of the UP resins A, B and C (cf. Example 5) with an initiator content of 0.2% were introduced into brown sample bottles, and the closed bottles were stored at 60° C. At intervals of about 12 hours, the bottles were turned to determine whether gel particles had formed. As a measure of the shelf life, Table 3 gives the maximum storage time at which gel particles were still not observed.
# (§6) In addition to the comparative compounds I, II and III, compound V below was also tested: V 2,4,6-trimethylbenzoyldiphenylphosphine oxide as described in U.S. Pat. No. 4,265,723.
# (§7) The numbering scheme of the compounds in Table 3 is based on that of Table 1.
# [3] = Shelf life of resins containing the compounds, overall comparison; assay type: physicochemical; conditions: Table 3, in words
# Method: as §5, §6
# [4] = Shelf life of UP resin A containing a photoinitiator, stored at 60° C. (Table 3); assay type: physicochemical; conditions: 0.2% initiator, dark
# Method: as §5, §6, §7
# [5] = Hardening activity of UP resin A under UV light, temperature/time curve (Table 2); conditions: 0.2% compound
# Method: as §1, §2, §3
# Resin A was a 65% strength solution, in styrene, of an unsaturated polyester of maleic acid, o-phthalic acid, ethylene glycol and propylene 1,2-glycol in the molar ratio of 1:2:2.3:0.70, the solution being stabilized with 0.01% of hydroquinone.
# as §4
# [6] = Hardening activity of UP resin C under UV light, temperature/time curve (Table 2); conditions: 0.2% compound
# Method: as §1, §2, §3
# Resin C was a 66% strength solution, in styrene, of an unsaturated polyester of maleic acid, o-phthalic acid and propylene 1,2-glycol in the molar ratio of 1:0.5:1.5, the solution being stabilized with 0.01% of hydroquinone.
# as §4
# [7] = Shelf life of UP resin C containing a photoinitiator, stored at 60° C. (Table 3); assay type: physicochemical; conditions: 0.2% initiator, dark
# Method: as §5, §6, §7
# [8] = Photopolymerization of monomer emulsion, properties of resulting polymer dispersions (Table 5)
# Method: A monomer emulsion was prepared from 50 parts of methyl acrylate, 50 parts of ethyl acrylate, 1.3 parts of a 40% strength C15 -paraffin sulfonate, 1.3 parts of an adduct of isooctylphenol with 25 units of ethylene oxide (20% strength) and 210 parts of water in a conventional mixing unit.
# This emulsion was introduced into a 1 l glass flask provided with an internal thermometer and a stirrer, and was freed from oxygen by twice evacuating the flask and gassing the emulsion with nitrogen. X parts of the photoinitiator in 6.7 parts of water were added, and the reaction vessel was then exposed for 60 minutes to light from a high pressure mercury vapor lamp of Type HQL/R 400 W from Osram, located 30 cm above the vessel. The beginning of polymerization was evident from an increase in the temperature. The amounts of photoinitiator employed and the properties of the resulting polymer dispersions are summerized in Table 5, photoinitiator 4 (cf. Table 1) being compared with photoinitiator VI (described in U.S. Pat. No. 4.257,859).
# [9] = Minimum exposure time for faultless reproduction of the 3% tonality on photopolymerizable printing plate (Table 7); conditions: 2 parts photoinitiator; UV about 3,300 μW/cm^2
# Method: 60 parts by weight of a 1:1:1 copolyamide consisting of PA-6, PA-6.6 and PA-6.13, 30 parts by weight of ethylene glycol bis-(N-methylolacrylamide) ether, 10 parts by weight of benzenesulfonic acid N-(n-butyl)-amide, 150 parts by weight of methanol, 20 parts by weight of water, 0.02 part by weight of a chromium complex dye (CI No. 12,195), 0.3 part by weight of potassium N-nitrosocyclohexylhydroxylamine and 2 parts by weight of the photoinitiator given in Table 7 were dissolved at about 70° C. The photopolymerizable material was brought to a solids content of about 65% by distilling off part of the solvent and was then cast, at 60° C., on to a strip of steel sheet provided with an adhesive, and drying was effected in a drying oven for about 2 hours at 80° C. The resulting photopolymerizable printing plate contained a 0.5 mm thick layer with a solids content of about 95%.
# Using a test negative which had, inter alia, 54 screen lines, per centimeter, of 3% tonality, the plate was exposed to a UV light intensity of about 3,300 μW/cm^2 on a flat-plate exposure unit equipped with superactinic fluorescent tubes. The unexposed parts of the plate which were protected from the UV light by the opaque image elements of the negative were then washed out in a spray washer for 5 minutes at 30° C. and under a spray pressure of 5 bar, using an ethanol/water mixture containing 80% of ethanol. The plate was thereafter dried for 6 minutes at 110° C. The minimum exposure time required for faultless reproduction of the 3% tonality was measured, and the results for various photoinitiators are summarized in Table 7.
# [10] = 1.7 parts X employed, 60 min exposure
Compound,hardening time HT 25°-Tmax [1],maximum hardening temperature Tmax [1] [°C],"shelf life of resins compared with compounds II, III and V [3]",Shelf life [4] [h],hardening time HT 25°-Tmax [5],maximum hardening temperature Tmax [5] [°C],hardening time HT 25°-Tmax [6],maximum hardening temperature Tmax [6] [°C],also measured
Cc1cc(C)c(C(=O)P(=O)(O)c2ccccc2)c(C)c1 [Compound 11],4/30,124,substantially superior,180,5/23,118,5/15,120,Shelf life [2]: 155 h; shelf life of resins compared with resins containing I [3]: not significantly different; Shelf life [7]: 204 h
C[N+]1(CC(O)(C(=O)c2ccccc2)c2ccccc2)CCCC1 (stereo not drawn) [VI],–,–,–,–,–,–,–,–,"polymerization outcome ([8]; 0.04 parts X employed): no polymerization; Fikentscher K value [8, 10]: 146.1; Residual monomers, ethyl acrylate [8, 10]: 0.012%; Residual monomers, methyl acrylate [8, 10]: 0.036%; Solids content [8, 10]: 30.8%; initiation of photopolymerization at very low starting concentrations ([8]; very low starting concentrations, in words): no longer initiates polymerization"
Cc1cc(C)c(C(=O)P(=O)(O)c2ccccc2)c(C)c1 [Compound 13],5/30,126,–,–,6/08,115,5/23,121,–
Cc1cc(C)c(C(=O)P(=O)(O)c2ccccc2)c(C)c1 [Compound 5],–,–,–,–,5/38,118,–,–,–
"COC(OC)(C(=O)c1ccccc1)c1ccccc1 [III, benzil dimethyl ketal, reference compound]",9/45,119,–,–,8/00,114,8/30,122,Minimum exposure time required for reproducing the 3% tonality [9]: 165 s
Cc1cc(C)c(C(=O)P(=O)(O)c2ccccc2)c(C)c1 [Compound 18],–,–,substantially superior,270,–,–,–,–,–
Cc1cc(C)c(C(=O)P(=O)(O)c2ccccc2)c(C)c1 [Compound 9],4/45,125,substantially superior,180,5/53,110,5/45,129,Shelf life [2]: 140 h; shelf life of resins compared with resins containing I [3]: not significantly different; Shelf life [7]: 180 h
Cc1cc(C)c(C(=O)P(=O)(O)c2ccccc2)c(C)c1 [Compound 15],8/00,119,–,–,7/15,113,7/30,109,–
Cc1cc(C)c(C(=O)P(=O)(O)c2ccccc2)c(C)c1 [Compound 17],–,–,substantially superior,270,5/38,120,–,–,–
Cc1cc(C)c(C(=O)P(=O)(O)c2ccccc2)c(C)c1 [Compound 6],–,–,–,–,5/53,115,–,–,–
Cc1cc(C)c(C(=O)P(=O)(O)c2ccccc2)c(C)c1 [Compound 14],4/53,118,substantially superior,180,5/30,122,5/38,123,Shelf life [2]: 155 h; shelf life of resins compared with resins containing I [3]: not significantly different; Minimum exposure time required for reproducing the 3% tonality [9]: 110 s; Shelf life [7]: 204 h
"Cc1cc(C)c(C(=O)P(=O)(OC(C)C)c2ccccc2)c(C)c1 (stereo not drawn) [II, isopropyl 2,4,6-trimethylbenzoylphenylphosphinate, reference compound]",5/15,128,–,140,6/45,107,6/08,120,Shelf life [2]: 155 h; Shelf life [7]: 120 h
Cc1cc(C)c(C(=O)P(=O)(O)c2ccccc2)c(C)c1 [Compound 16],–,–,–,–,5/15,115,–,–,–
"Cc1cc(C)c(C(=O)P(=O)(O)c2ccccc2)c(C)c1 [Compound 8, Calcium bis-(2,4,6-trimethylbenzoylphenylphosphinate)]",6/00,130,–,–,5/53,114,–,–,–
